Patent US9944618B2, “Inhibiting neurotransmitter reuptake” (Mayo Foundation for Medical Education and Research, priority 2013, dated 2018)
Where two headings read alike, the source gives them in different places.

What was measured:
[1] = biological target: human dopamine transporter (Homo sapiens (Human), UniProt Q01959); test: Human DAT (dopamine transporter) uptake assay; assay type: cell-based; conditions: read-out: hDAT Ki
In short: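 Uptake inhibition was measured in HEK293F cells transfected with human DAT, plated at ~60,000 cells/well and settled ≥3 h at 37 °C. Compounds came from 10 mM DMSO stocks. Read-out was uptake of a fluorescent neurotransmitter transporter dye in HBSS with 0.02 M HEPES, with dye level given as % of vendor reconstitution; n=3.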

[2] = pKa of basic centres (Table 1); assay type: physicochemical
[3] = biological target: CYP2D6 (Homo sapiens (Human), UniProt P10635); test: Cytochrome P450 inhibition assay, recombinant CYP2D6 (MAMC substrate); assay type: in vitro ADME; conditions: recombinant enzyme
Description: (§1) Recombinant enzymes, 3A4 and 2D6, generated using the ABL yeast expression system were used. […] The assay mixture also included K2HPO4 (pH 7.4; conc. 0.1 M) and NADPH (conc. 1 mM). The incubation time was 30 minutes, and the reference inhibitor was A-naphthoflavone. For CYP2D6, the enzyme amount was 2 pmol per well, and the substrate (7-methoxy-4-(aminomethyl)-coumarin; MAMC) was used at 20 μM. The assay mixture also included K2HPO4 (pH 7.4; conc. 0.1 M) and NADPH (conc. 0.06 mM). The incubation time was 35 minutes, and the reference inhibitor was quinidine.
(§2) Briefly, 0.6 μL of serially diluted compound was added to 75 μL water. 10 μL of diluted compound in water was then added to each assay plate. 20 μL of a K2HPO4, enzyme, and substrate mixture was added. After 10 minutes of room temperature pre-incubation, 10 μL of NADPH was added, and the plates were placed at 37° C. for 30 or 35 minutes depending on the enzyme being tested. After the incubation was complete, 20 μL of 0.1% Tris/ACN was added to the plate. The plate was read on a FluorStar fluorescence plate reader.

[4] = biological target: human serotonin transporter (Homo sapiens (Human), UniProt P31645); test: Human SERT (serotonin transporter) uptake assay; assay type: cell-based; conditions: read-out: hSERT Ki
In short: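 HEK293F cells transfected with human SERT, about 60,000 per well, settled for ≥3 h at 37° C before compound addition. Uptake was followed with a fluorescent transporter dye in HBSS with 0.02 M HEPES. Background came from 10 μM fluoxetine, nomifensine was the control, n=3.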

[5] = biological target: hERG (Homo sapiens (Human), UniProt Q12809); test: Human ERG (hERG) assay, hERG currents in hERG-expressing CHO cells; assay type: cell-based; conditions: hERG-expressing CHO cells
[6] = biological target: human norepinephrine transporter (Homo sapiens (Human), UniProt P23975); test: Human NET (norepinephrine transporter) uptake assay; assay type: cell-based; conditions: read-out: hNET Ki
In short: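 HEK293F cells transfected with human NET were thawed, plated at about 60,000 cells/well and held at 37 °C for at least 3 h. Compounds came from 10 mM DMSO stocks, with nomifensine as control, in 1×HBSS/0.02 M HEPES. Uptake was followed with a neurotransmitter transporter dye, dosed as % of vendor reconstitution, in triplicate.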

[7] = biological target: CYP3A4 (Homo sapiens (Human), UniProt P08684); test: Cytochrome P450 inhibition assay, recombinant CYP3A4 (BFC substrate); assay type: in vitro ADME; conditions: recombinant enzyme
Description: as §1, §2

[8] = first base, e.g., an aliphatic primary, secondary, or tertiary amine, read-out: pKa (Base 1)
[9] = first base, e.g., an aliphatic primary, secondary, or tertiary amine
[10] = second base in the same molecule (if present), read-out: pKa (Base 2)

Sequence of CYP3A4 (P08684 whole entry): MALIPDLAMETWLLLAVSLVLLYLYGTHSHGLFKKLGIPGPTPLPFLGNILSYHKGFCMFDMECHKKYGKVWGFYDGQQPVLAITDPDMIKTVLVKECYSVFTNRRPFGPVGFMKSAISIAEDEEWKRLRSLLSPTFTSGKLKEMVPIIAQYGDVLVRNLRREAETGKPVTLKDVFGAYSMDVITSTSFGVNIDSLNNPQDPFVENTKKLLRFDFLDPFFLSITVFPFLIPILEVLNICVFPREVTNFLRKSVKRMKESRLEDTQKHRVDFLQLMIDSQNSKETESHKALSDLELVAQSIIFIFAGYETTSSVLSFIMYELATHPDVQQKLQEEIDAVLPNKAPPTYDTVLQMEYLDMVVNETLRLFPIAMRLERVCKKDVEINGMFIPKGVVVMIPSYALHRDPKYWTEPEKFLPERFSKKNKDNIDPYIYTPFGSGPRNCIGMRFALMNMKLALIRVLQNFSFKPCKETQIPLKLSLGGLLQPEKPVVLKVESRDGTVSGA
Sequence of CYP2D6 (P10635 whole entry): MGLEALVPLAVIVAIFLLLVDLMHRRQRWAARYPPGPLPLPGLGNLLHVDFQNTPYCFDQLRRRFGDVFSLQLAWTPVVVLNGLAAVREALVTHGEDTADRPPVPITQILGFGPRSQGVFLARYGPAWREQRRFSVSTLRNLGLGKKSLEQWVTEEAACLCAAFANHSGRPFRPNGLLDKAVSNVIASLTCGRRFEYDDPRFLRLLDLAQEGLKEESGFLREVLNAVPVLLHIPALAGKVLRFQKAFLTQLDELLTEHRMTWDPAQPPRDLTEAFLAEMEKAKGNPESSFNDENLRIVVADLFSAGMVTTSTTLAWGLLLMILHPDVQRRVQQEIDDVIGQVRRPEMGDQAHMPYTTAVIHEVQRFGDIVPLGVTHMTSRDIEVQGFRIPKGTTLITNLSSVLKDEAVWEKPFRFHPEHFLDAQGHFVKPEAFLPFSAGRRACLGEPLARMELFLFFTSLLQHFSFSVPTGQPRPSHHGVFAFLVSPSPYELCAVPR
Sequence of hERG (Q12809 whole entry): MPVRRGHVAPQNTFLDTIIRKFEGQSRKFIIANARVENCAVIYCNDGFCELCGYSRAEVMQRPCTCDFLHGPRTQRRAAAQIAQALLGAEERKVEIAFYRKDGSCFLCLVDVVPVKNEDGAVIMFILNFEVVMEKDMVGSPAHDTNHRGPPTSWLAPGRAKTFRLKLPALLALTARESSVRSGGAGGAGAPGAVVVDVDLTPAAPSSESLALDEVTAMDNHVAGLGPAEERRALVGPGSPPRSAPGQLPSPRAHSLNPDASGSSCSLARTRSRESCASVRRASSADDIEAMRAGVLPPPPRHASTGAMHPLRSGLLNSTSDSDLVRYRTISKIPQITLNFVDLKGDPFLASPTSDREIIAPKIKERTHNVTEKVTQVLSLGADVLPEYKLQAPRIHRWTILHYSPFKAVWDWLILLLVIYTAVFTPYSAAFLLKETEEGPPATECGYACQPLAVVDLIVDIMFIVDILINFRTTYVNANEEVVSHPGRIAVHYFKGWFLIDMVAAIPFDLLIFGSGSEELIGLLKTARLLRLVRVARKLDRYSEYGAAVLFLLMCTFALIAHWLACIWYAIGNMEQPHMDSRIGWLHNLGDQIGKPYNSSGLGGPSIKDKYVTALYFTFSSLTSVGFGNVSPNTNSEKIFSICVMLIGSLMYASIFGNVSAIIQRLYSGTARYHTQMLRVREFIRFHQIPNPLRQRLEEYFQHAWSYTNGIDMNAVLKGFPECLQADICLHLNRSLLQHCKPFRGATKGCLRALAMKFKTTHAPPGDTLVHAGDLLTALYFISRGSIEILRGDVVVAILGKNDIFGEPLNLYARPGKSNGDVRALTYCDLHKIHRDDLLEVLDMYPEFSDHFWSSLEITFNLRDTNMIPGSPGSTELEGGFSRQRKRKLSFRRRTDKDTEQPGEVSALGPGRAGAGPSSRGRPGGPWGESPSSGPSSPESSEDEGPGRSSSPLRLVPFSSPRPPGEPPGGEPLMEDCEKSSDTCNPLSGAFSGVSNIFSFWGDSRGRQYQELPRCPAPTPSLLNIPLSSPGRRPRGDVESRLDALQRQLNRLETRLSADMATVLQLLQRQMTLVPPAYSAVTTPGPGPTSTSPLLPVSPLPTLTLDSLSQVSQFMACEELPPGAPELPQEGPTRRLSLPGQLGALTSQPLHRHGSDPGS
Sequence of human dopamine transporter (Q01959 whole entry): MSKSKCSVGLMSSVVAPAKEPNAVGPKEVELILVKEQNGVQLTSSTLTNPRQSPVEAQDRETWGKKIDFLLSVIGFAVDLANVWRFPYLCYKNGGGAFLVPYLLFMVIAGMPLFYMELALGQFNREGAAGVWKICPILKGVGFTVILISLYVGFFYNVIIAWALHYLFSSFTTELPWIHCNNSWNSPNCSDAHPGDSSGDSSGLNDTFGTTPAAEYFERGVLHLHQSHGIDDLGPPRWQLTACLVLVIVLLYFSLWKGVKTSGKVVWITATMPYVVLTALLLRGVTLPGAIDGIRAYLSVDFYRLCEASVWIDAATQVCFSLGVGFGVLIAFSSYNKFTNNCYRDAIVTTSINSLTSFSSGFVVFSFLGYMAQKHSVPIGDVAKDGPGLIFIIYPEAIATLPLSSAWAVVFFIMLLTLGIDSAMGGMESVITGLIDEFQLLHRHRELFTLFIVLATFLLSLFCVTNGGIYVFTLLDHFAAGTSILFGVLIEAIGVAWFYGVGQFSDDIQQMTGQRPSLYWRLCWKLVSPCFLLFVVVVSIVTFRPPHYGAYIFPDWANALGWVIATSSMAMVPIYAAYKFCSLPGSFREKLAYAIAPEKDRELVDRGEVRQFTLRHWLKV
Sequence of human norepinephrine transporter (P23975 whole entry): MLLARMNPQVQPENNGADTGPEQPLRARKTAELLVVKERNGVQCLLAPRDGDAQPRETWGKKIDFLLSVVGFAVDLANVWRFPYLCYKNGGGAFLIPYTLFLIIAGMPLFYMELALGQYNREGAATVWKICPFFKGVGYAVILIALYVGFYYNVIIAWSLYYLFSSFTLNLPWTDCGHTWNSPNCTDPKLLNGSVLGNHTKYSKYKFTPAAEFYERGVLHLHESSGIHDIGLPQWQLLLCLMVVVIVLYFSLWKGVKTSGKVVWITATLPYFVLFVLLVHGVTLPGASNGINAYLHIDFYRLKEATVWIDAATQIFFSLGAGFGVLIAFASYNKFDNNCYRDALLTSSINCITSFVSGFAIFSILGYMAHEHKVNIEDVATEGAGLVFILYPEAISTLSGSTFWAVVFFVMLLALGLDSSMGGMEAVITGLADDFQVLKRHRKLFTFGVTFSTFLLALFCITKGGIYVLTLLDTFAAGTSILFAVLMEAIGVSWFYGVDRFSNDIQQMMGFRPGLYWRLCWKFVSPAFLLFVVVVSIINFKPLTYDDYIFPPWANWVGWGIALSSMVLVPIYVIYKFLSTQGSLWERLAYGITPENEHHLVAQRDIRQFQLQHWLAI
Sequence of human serotonin transporter (P31645 whole entry): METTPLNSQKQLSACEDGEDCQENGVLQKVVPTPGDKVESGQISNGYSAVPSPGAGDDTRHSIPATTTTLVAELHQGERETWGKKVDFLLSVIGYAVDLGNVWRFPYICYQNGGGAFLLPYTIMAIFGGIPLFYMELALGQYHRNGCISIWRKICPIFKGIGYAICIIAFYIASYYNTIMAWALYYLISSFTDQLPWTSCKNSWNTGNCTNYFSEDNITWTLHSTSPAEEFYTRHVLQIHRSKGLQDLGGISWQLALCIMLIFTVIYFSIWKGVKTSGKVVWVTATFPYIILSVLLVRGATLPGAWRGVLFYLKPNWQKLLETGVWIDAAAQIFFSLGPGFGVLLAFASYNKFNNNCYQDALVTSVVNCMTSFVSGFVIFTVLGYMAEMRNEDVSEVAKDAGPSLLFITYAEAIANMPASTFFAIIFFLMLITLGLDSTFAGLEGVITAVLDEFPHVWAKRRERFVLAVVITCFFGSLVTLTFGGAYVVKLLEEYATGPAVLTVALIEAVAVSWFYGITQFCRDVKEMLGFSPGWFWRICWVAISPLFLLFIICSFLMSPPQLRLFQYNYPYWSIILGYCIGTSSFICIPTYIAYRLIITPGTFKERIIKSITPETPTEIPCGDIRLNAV

Compound | Ki [1] [nM] | pKa [2, 8] | IC50 [3] [nM] | Ki [4] [nM] | IC50 [5] [nM] | Ki [6] [nM] | IC50 [7] [nM] | pKa (Base 1) [2, 9] | pKa [2, 10]
CNC[C@H](c1ccc(Br)c(Cl)c1)[C@@H](O)c1ccccc1 [Compound 21] | 32.4 | 9.4 | 470 | 66.4 | 23000 | 2 | 20000 | – | –
CNC[C@H](c1ccc2ccccc2c1)[C@H](OCc1noc(C)n1)c1ccccc1 [Compound 22] | 56.7 | 9.6 | 180 | 2.1 | 15000 | 2 | 15000 | – | –
CNC[C@H](c1ccc2ccccc2c1)[C@H](OCC(=O)N1CCOCC1)c1ccccc1 [Compound 23] | 65.6 | 9.6 | 4900 | 5.6 | 21000 | 2 | 20000 | – | –
CNC[C@H](c1ccc2ccccc2c1)[C@H](O)c1ccc(Cl)nc1 [Compound 26] | 53.5 | 9.6 | 27 | 1.6 | 7500 | 2.2 | 20000 | – | –
CNC[C@H](c1ccc2ccccc2c1)[C@H](O)c1ccccc1C [Compound 28] | 43.8 | 9.7 | 160 | 3.4 | 15000 | 2.4 | 9600 | – | –
CNC[C@H](c1ccc2ccccc2c1)[C@H](OCC(=O)N1CC[C@@H](O)C1)c1ccccc1 [Compound 34] | 28.5 | 9.6 | 12000 | 7.5 | 33000 | 2.7 | 20000 | – | –
CNCC(Cc1ccccc1C)c1ccc2ccccc2c1 (centres unmarked) [Compound 39] | 34.3 | – | 170 | 12.6 | 8200 | 3.1 | 8400 | 10.1 | –
C[C@](CN)(Cc1cccnc1)c1ccc2ccccc2c1 [Compound 42] | 89.5 | 9.2 | 1100 | 0.3 | 27000 | 3.2 | 3400 | – | 5.2
CNC[C@@H](Cc1ccc(C)s1)c1ccc2ccccc2c1 [Compound 44] | 74.1 | 10 | 1000 | 12.2 | 3300 | 3.3 | 8000 | – | –
CNCC(Cc1cccnc1)c1ccc2ccccc2c1 (centres unmarked) [Compound 48] | 78 | 9.9 | 580 | 2.3 | 33000 | 3.8 | 15000 | – | –
CNC[C@@H](c1ccc2ccccc2c1)[C@@H](O)c1cccnc1 [Compound 49] | 213 | 9.6 | 1700 | 5.6 | 25000 | 3.8 | 20000 | – | 5.1
CNCC(Cc1ccccc1O)c1ccc2ccccc2c1 (centres unmarked) [Compound 52] | 26.7 | 10 | 900 | 20.4 | 12000 | 4.1 | 20000 | – | –
CNCC(Cc1ccccc1OC)c1ccc2ccccc2c1 (centres unmarked) [Compound 57] | 20.2 | 10.1 | 190 | 5.9 | 4700 | 5 | 3300 | – | –
CNC[C@H](c1ccc2ccccc2c1)[C@@H](O)c1ccccc1F [Compound 60] | 83.2 | 9.7 | 560 | 10.7 | 28000 | 5.3 | 20000 | – | –
CNC[C@H](c1ccc2ccccc2c1)[C@@H](Cl)c1ccccc1 [Compound 61] | 14.6 | 9.5 | 300 | 0.9 | 9800 | 5.8 | 20000 | – | –
CNC[C@H](c1ccc(Cl)c(Cl)c1)[C@@H](O)c1ccccc1[N+](=O)[O-] [Compound 65] | 18.1 | 9.3 | 43 | 243 | 19000 | 7.5 | 7800 | – | –
CNCC(CCc1ccccc1)[C@H](O)c1ccccc1 (some centres unmarked) [Compound 66] | 28.9 | 10.1 | 260 | 46.7 | 15000 | 8.1 | 20000 | – | –
CNC[C@H](c1ccc2ccccc2c1)[C@H](OCc1nc(C)no1)c1ccccc1 [Compound 67] | 69.7 | 9.6 | 330 | 0.7 | 15000 | 8.2 | 20000 | – | –
CNCC(Cc1ccccc1O)c1ccc2ccccc2c1 (centres unmarked) [Compound 69] | 21.9 | – | 510 | 21.2 | 9500 | 9 | 20000 | 10 | –
CNC[C@H](c1ccc(Cl)c(Cl)c1)[C@@H](O)c1ccccc1 [Compound 70] | 48.5 | 9.4 | 220 | 142 | 31000 | 9.5 | 20000 | – | –
CNCC(Cc1cccnc1)c1ccc2ccccc2c1 (centres unmarked) [Compound 74] | 109 | – | 790 | 13.6 | 20000 | 10.3 | 8100 | 9.9 | 5.2
CNC[C@H](c1ccc(Cl)c(Cl)c1)[C@H](O)c1cccc(Br)c1 [Compound 76] | 21.2 | 9.4 | 140 | 222 | 3000 | 11.9 | 3600 | – | –
CNC[C@@H](c1ccc2ccccc2c1)[C@@H](O)c1ccccc1F [Compound 78] | 26.1 | 9.7 | 1100 | 15.3 | 12000 | 14.3 | 20000 | – | –
CN(C)C[C@H](c1ccc2ccccc2c1)[C@H](N)c1ccccc1 [Compound 82] | 9.8 | 9 | 990 | 15.3 | 19000 | 15.3 | 20000 | – | 8.3
CNCC(C[C@H](O)c1ccccc1)c1ccc2ccccc2c1 (some centres unmarked) [Compound 85] | 247 | 10.1 | 1000 | 16.1 | 21000 | 16.4 | 20000 | – | –
